Measured values published in patent publication US20090054376A1, “BENZOFURAN DERIVATIVES WITH THERAPEUTIC ACTIVITIES” (Pharmos Corporation, priority 2005, published 2009).

How the values were obtained:
[1] = tested on: PLP induced remitting-relapsing EAE; experiment: PLP induced remitting-relapsing EAE; assay type: in vivo, SJL female mice; conditions: for average clinical score on the first peak of the disease: vehicle 3.63±0.25; for average clinical score at the second peak of the disease (first relapse): vehicle 3.14±0.48; for reduction in average clinical score at peak as compared to vehicle: first peak; for AUC of clinical score: over 23 days, vehicle 54.13±9.58; for reduction in average clinical score as compared to vehicle: second peak
[2] = tested on: visceral pain writhing responses; experiment: Tolerance: repeated administration in the model of Visceral Pain; assay type: in vivo, mice; conditions: tested day 11 at 2 mg/kg i.v.
Protocol: Male ICR mice (average body weight 25 g, Harlan, Israel) were pretreated by i.v. injection at volume dose of 5 ml/kg of vehicle, control and test compounds at various doses. Other routes of administration were tested for selected compounds including i.m. or s.c. injections at volume dose of 2.5 ml/kg and p.o. gavage at volume dose of 5 ml/kg. Compounds were dissolved in CREMOPHOR®:Ethanol and diluted 1:20 in saline prior to injection or gavage. Compounds administered i.v. were injected fifteen minutes before pain induction, whereas compounds administered i.m., s.c. or p.o. were supplied thirty minutes before pain induction, unless otherwise indicated. Each treatment group, except for controls comprising at least 30 animals, was composed of at least 6 animals. Fifteen or thirty minutes after drug administration, depending on the route of administration, the mice were injected i.p. with 10 ml/kg of 0.6% acetic acid and the number of visceral pain related behaviors (writhing movements globally defined as WR, i.e. stretching, contractions of the abdomen accompanied by an elongation of the body and extension of the hind limbs) was counted over a period of 5 minutes, starting 5 minutes after the acetic acid administration. These visceral pain related behaviors were globally defined as writhing responses (WR). The results are expressed as mean number of writhing responses ±SEM. Data were analyzed using analysis of variance (ANOVA) followed by post-hoc Fisher test.
Briefly compounds of the invention were administered at 10 mg/kg i.p. daily for 10 days and their analgesic activity was tested on day 11 as described in Example 17 (namely at 2 mg/kg i.v.). […] Each treatment group comprised 10 animals.

[3] = tested on: CFA induced rheumatoid arthritis; experiment: CFA induced rheumatoid arthritis; assay type: in vivo, Female Lewis rats
Protocol: Female Lewis rats (125 g average body weight, Harlan, Israel), at least eight per treatment group were used in this study. CFA was prepared by combining 100 mg of Mycobacterium Tuberculosis (Difco) with 5 ml of incomplete Freund's adjuvant and grinding for about 3 minutes the resulting mixture until a brownish suspension was obtained. The CFA suspension was administered s.c. at the base of the tail, 0.2 ml/animal. Three tests were performed to evaluate the pain and inflammation caused by the disease. These tests were performed before CFA injection to establish baseline values and 14, 21 and 28 days after disease induction. Compounds of the invention were administered daily for fourteen days p.o. at a dose of 10 mg/kg starting on day 14, after disease onset. A group of animals treated with vehicle only at 5 ml/kg served as control.
The parameters monitored were as detailed in Example 18 and include paw edema and redness, and response to thermal and mechanical pain stimuli. At the end of the treatment period the animals were euthanized. The paws were cut and stored in a solution of 4% formalin until histopathological evaluation.
The differences among various treatment groups between the severity of the clinical signs, as expressed by paw swelling and redness, as well as the differences in pain responses, as expressed by Latency Time (sec) and Force (g) needed to observe withdrawal of the paw following thermal and mechanical stimuli, and finally the tissue damage, as expressed by the histological scores, were compared using analysis of variance ANOVA followed by post-hoc t-Test. A value of p<0.05 is considered to be statistically significant.

Compound: CCCCCCC(C)(C)c1cc(O)c2c(c1)OC1C(O)CCCCC21 (stereo not drawn) [Compound C7S-2, 2-(1,1-dimethylheptyl)-5,6,7,8,9,9a-hexahydro-4bH-10-oxa-benzo[α]azulen-4,9-diol]
- average clinical score on the first peak of the disease ([1]; 5 mg/kg p.o. daily for 10 days): 2.78±0.15
- average clinical score at the second peak of the disease (first relapse) ([1]; 5 mg/kg p.o.): 1.25±0.41
- average clinical score on the first peak of the disease ([1]; 10 mg/kg i.p. daily for 10 days): 2.43±0.26
- average clinical score at the second peak of the disease (first relapse) ([1]; 10 mg/kg i.p.): 0.57±0.11
- reduction in average clinical score at peak as compared to vehicle ([1]; 5 mg/kg p.o.): 23%
- reduction in average clinical score at peak as compared to vehicle ([1]; 10 mg/kg i.p.): 33%
- reduction of overall severity of the disease (expressed in AUC) ([1]; i.p.): 64%
- AUC of clinical score ([1]; 5 mg/kg p.o.): 28.13±5.74
- AUC of clinical score ([1]; 10 mg/kg i.p.): 19.43±2.51
- reduction of overall severity of the disease (expressed in AUC) ([1]; p.o.): 48%
- reduction in average clinical score as compared to vehicle ([1]; i.p.): 82%
- reduction in average clinical score as compared to vehicle ([1]; p.o.): 60%
- writhing responses on day 11 ([2]; repeated administration daily for 10 days (10 mg/kg i.p.), vehicle 29.75±1.09): 2.45±1.49
- reduction in pain response after repeated administration ([2]; repeated administration daily for 10 days): 92%
- decrease in clinical score as compared to first day of treatment ([3]; after two weeks of treatment, 10 mg/kg p.o.): 44%
- average clinical score regarding the edema ([3]; after two weeks of treatment, 10 mg/kg p.o. daily, vehicle 6.67±1.85): 3.29±0.97
- average clinical score regarding the edema ([3]; day 14, at initiation of treatment, 10 mg/kg p.o. group, vehicle 6.00±1.18): 5.86±1.70
- difference in average clinical score in favor of treated animals ([3]; day 21, after a week of treatment, 10 mg/kg p.o. daily, vs vehicle): 1.89 unit
- Force increase over baseline ([3]; day 28, 10 mg/kg p.o.): about 63%
- Latency increase over baseline values of day 14 ([3]; day 28, 10 mg/kg p.o.): more than 32%
- Latency prolonged following thermal stimulus ([3]; day 28 vs day 14, 10 mg/kg p.o.): about 5 seconds
- increase of Force needed to elicit a withdrawal response ([3]; day 28 vs day 14, 10 mg/kg p.o., mechanical stimulus): 11.1 grams
